Drawing on ChEMBL document CHEMBL3217704, “Combination of biotransformation by P450 BM3 mutants with on-line post-column bioaffinity and mass spectrometric profiling as a novel strategy to diversify and characterize p38 kinase inhibitors” (Medchemcomm, 2013), this text covers IC50 for five compounds.

As usually defined, the IC50 is the concentration that gives 50% inhibition.

The assay has as its target Mitogen-activated protein kinase 14 (Homo sapiens, UniProt Q16539). As to the kind of experiment: Displacement of SKF86002 from recombinant human p38alpha by fluorescence-based assay.

Mitogen-activated protein kinase 14, sequence (Q16539 whole entry): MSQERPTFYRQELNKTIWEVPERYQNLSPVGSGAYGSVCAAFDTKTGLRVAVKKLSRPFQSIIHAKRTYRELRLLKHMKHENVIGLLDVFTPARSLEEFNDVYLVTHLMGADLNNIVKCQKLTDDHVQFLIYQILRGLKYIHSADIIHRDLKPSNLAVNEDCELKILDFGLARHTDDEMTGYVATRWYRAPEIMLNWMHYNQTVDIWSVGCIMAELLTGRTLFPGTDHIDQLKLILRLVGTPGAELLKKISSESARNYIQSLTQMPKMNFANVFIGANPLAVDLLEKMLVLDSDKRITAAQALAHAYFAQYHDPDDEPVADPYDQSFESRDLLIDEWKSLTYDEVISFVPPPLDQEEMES

As for `CC(O)c1nc(-c2cccc(CO)c2)c(-c2ccnc(NC(=O)c3ccccc3)c2)s1` (stereo not given), for the setting “read-out: IC50”, the IC50 is 460 nM.

In the case of `CCc1nc(-c2cccc(CO)c2)c(-c2ccnc(NC(=O)c3ccccc3)c2)s1`, the IC50 (read-out: IC50) was found to be 310 nM.

In the case of `Cc1cccc(-c2nc(C(C)O)sc2-c2ccnc(NC(=O)c3ccccc3)c2)c1` (stereo not given), the IC50 (read-out: IC50) turned out to be 38 nM.

In the case of `CCc1nc(-c2cccc(C(=O)O)c2)c(-c2ccnc(NC(=O)c3ccccc3)c2)s1`, the IC50 (read-out: IC50) is 1500 nM.

Take `CC(O)c1nc(-c2cccc(C(=O)O)c2)c(-c2ccnc(NC(=O)c3ccccc3)c2)s1` (stereo not given): the IC50 entry is reported as “Not Active”.
